This note sets out measurements from patent US12617773B2, “Azetidin-3-ylmethanol derivatives as CCR6 receptor modulators” (Idorsia Pharmaceuticals Ltd, priority 2020, dated 2026).

For orientation: IC50 means the point on the concentration scale where inhibition reaches its midpoint.

The target in this assay is T1, human CCR6 (Homo sapiens, UniProt P51684).
T1 construct: expressed in transfected cells; host or cells: HEK-293
T1 sequence (P51684 1-374): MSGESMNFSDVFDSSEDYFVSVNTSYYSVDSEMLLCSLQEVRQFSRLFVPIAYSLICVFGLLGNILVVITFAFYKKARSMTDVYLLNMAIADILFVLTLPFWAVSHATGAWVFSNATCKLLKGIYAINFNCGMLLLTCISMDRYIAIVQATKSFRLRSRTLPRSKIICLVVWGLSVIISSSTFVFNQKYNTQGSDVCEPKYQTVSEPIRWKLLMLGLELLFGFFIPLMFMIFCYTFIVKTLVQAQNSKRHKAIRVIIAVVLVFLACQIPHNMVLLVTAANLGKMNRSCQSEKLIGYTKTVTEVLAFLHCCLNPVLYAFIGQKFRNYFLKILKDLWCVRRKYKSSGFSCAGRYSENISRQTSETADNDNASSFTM
The experiment in a line: FLIPR assay (inhibition of CCL20-induced calcium signal). Format: cell-based. The note with it: HEK-293 cells expressing human CCR6; mean values where determined several times; read-out: FLIPR IC50. Put shortly:
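Dye-loaded HEK-293 cells expressing human CCR6 were preincubated with compound for 30 min at room temperature in the dark, then challenged with 10 nM CCL20 (final). Fluorescence was tracked on FLIPR, and baseline-subtracted peak emission over base after agonist addition gave inhibition dose-response curves for IC50.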
As to `CC(C)c1ccc([C@](O)(c2cncc(-c3nc(C4CCN(C(=O)C5COCCO5)CC4)no3)c2)C2(C)CN(C)C2)cc1` (stereo partly drawn) [Example 525, [4-(5-{5-[(R)-(1,3-Dimethyl-azetidin-3-yl)-hydroxy-(4-isopropyl-phenyl)-methyl]-pyridin-3-yl}-[1,2,4]oxadiazol-3-yl)-piperidin-1-yl]-[1,4]dioxan-2-yl-methanone], the IC50 was 187 nM.
On to `COCC(=O)N1CCC(c2noc(-c3cncc([C@@](O)(c4ccc(C(C)C)cc4)C4(C)CN(C)C4)c3)n2)CC1` [Example 526, 1-[4-(5-{5-[(R)-(1,3-Dimethyl-azetidin-3-yl)-hydroxy-(4-isopropyl-phenyl)-methyl]-pyridin-3-yl}-[1,2,4]oxadiazol-3-yl)-piperidin-1-yl]-2-methoxy-ethanone], for which the 50% inhibitory concentration (IC50) was found to be 171 nM.
For `CC(C)c1ccc([C@](O)(c2cncc(-c3nc(C4CCN(S(C)(=O)=O)CC4)no3)c2)C2(C)CN(C)C2)cc1` [Example 527, (R)-(1,3-Dimethyl-azetidin-3-yl)-(4-isopropyl-phenyl)-{5-[3-(1-methanesulfonyl-piperidin-4-yl)-[1,2,4]oxadiazol-5-yl]-pyridin-3-yl}-methanol] the value was 74.3 nM; for `COCCS(=O)(=O)N1CCC(c2noc(-c3cncc([C@@](O)(c4ccc(C(C)C)cc4)C4(C)CN(C)C4)c3)n2)CC1` [Example 528, (R)-(1,3-Dimethyl-azetidin-3-yl)-(4-isopropyl-phenyl)-(5-{3-[1-(2-methoxy-ethanesulfonyl)-piperidin-4-yl]-[1,2,4]oxadiazol-5-yl}-pyridin-3-yl)-methanol], 66.9 nM; for `CC(C)c1ccc([C@](O)(c2cncc(-c3nc(C4CCN(C(=O)CO)CC4)no3)c2)C2(C)CN(C)C2)cc1` [Example 529, 1-[4-(5-{5-[(R)-(1,3-Dimethyl-azetidin-3-yl)-hydroxy-(4-isopropyl-phenyl)-methyl]-pyridin-3-yl}-[1,2,4]oxadiazol-3-yl)-piperidin-1-yl]-2-hydroxy-ethanone], 134 nM.
With `CC(C)c1ccc([C@](O)(c2cncc(-c3ncon3)c2)C2(C)CN(C)C2)cc1` [Example 530, (R)-(1,3-Dimethyl-azetidin-3-yl)-(4-isopropyl-phenyl)-(5-[1,2,4]oxadiazol-3-yl-pyridin-3-yl)-methanol] the figure was 58.7 nM; with `CC(=O)N1CCC(c2nc(-c3cncc([C@@](O)(c4ccc(C(C)C)cc4)C4(C)CN(C)C4)c3)no2)CC1` [Example 531, 1-[4-(3-{5-[(R)-(1,3-Dimethyl-azetidin-3-yl)-hydroxy-(4-isopropyl-phenyl)-methyl]-pyridin-3-yl}-[1,2,4]oxadiazol-5-yl)-piperidin-1-yl]-ethanone], 90 nM.
For `CN1CC(C)([C@](O)(c2ccc(Br)cc2)c2cncc(-c3noc(C(C)(C)O)n3)c2)C1` [Example 532] the value was 718 nM; for `CN1CC(C)([C@@](O)(c2cncc(-c3noc(C(C)(C)O)n3)c2)c2ccc3ccccc3c2)C1` [Example 533], 1020 nM; for `CN1CC(C)([C@](O)(c2ccc(C3(C(F)(F)F)CC3)cc2)c2cncc(-c3noc(C(C)(C)O)n3)c2)C1` [Example 534], 47 nM.
Turning to `CN1CC(C)([C@](O)(c2ccc(C(C)(C)C(F)(F)F)cc2)c2cncc(-c3noc(C(C)(C)O)n3)c2)C1` [Example 535], the IC50 is 331 nM.
With `CC(C)Oc1ccc([C@](O)(c2cncc(-c3noc(C(C)(C)O)n3)c2)C2(C)CN(C)C2)cc1` [Example 536], the concentration for half-maximal inhibition (IC50) turned out to be 2450 nM.
In the case of `CN1CC(C)([C@](O)(c2ccc(C(F)(C(F)(F)F)C(F)(F)F)cc2)c2cncc(-c3noc(C(C)(C)O)n3)c2)C1` [Example 537], the half-maximal inhibitory concentration (IC50) came out at 152 nM.
With `CN1CC(C)([C@](O)(c2ccc(S(F)(F)(F)(F)F)cc2)c2cncc(-c3noc(C(C)(C)O)n3)c2)C1` [Example 538] the figure was 145 nM; with `CC(C)c1ccc([C@](O)(c2cncc(-c3noc(C(C)(C)O)n3)c2)C2(C)CN(C)C2)cc1F` [Example 539], 56 nM; with `CN1CC(C)([C@](O)(c2ccc(C(C)(C)C)cc2)c2cncc(-c3noc(C(C)(C)O)n3)c2)C1` [Example 540], 122 nM.
With `CN1CC(C)([C@@](O)(c2cncc(-c3noc(C(C)(C)O)n3)c2)c2ccc3sccc3c2)C1` [Example 541] the figure was 452 nM.
With `CN1CC(C)([C@](O)(c2ccc(C(F)(F)C(F)(F)F)cc2)c2cncc(-c3noc(C(C)(C)O)n3)c2)C1` [Example 542] the figure was 34.8 nM; with `CN1CC(C)([C@](O)(c2ccc(C3(C)CC3)cc2)c2cncc(-c3noc(C(C)(C)O)n3)c2)C1` [Example 543], 22.8 nM; with `Cc1cc([C@](O)(c2cncc(-c3noc(C(C)(C)O)n3)c2)C2(C)CN(C)C2)ccc1C(C)C` [Example 544], 257 nM.
As for `CN1CC(C)([C@](O)(c2ccc(OC(F)(F)F)cc2)c2cncc(-c3noc(C(C)(C)O)n3)c2)C1` [Example 545], the IC50 amounted to 61 nM.
Regarding `CC(=O)N1CCC(c2nc(-c3cncc([C@@](O)(c4ccc(Br)cc4)C4(C)CN(C)C4)c3)no2)CC1` [Example 546], the IC50 stood at 776 nM.
For `CN1CC(C)([C@](O)(c2ccc(C(C)(C)F)cc2)c2cncc(-c3noc(C(C)(C)O)n3)c2)C1` [Example 547] the value was 797 nM; for `CN1CC(C)([C@](O)(c2ccc(C(C)(F)F)cc2)c2cncc(-c3noc(C(C)(C)O)n3)c2)C1` [Example 548], 742 nM.
With `CN1CC(C)([C@](O)(c2ccc(C34CC(C3)C4)cc2)c2cncc(-c3noc(C(C)(C)O)n3)c2)C1` [Example 549] the figure was 58.2 nM; with `CN1CC(C)([C@](O)(c2ccc(CC(F)(F)F)cc2)c2cncc(-c3noc(C4CCOCC4)n3)c2)C1` [Example 550], 70.8 nM.
For `CCC(C)(C)c1ccc([C@](O)(c2cncc(-c3noc(C(C)(C)O)n3)c2)C2(C)CN(C)C2)cc1` [Example 551] the value was 135 nM; for `CC(=O)N1CCC(c2nc(-c3cncc([C@@](O)(c4ccc(C(C)C)c(F)c4)C4(C)CN(C)C4)c3)no2)CC1` [Example 552], 76.8 nM.
Regarding `CC(=O)N1CCC(c2nc(-c3cncc([C@@](O)(c4ccc(C5(C(F)(F)F)CC5)cc4)C4(C)CN(C)C4)c3)no2)CC1` [Example 553], the 50% inhibitory concentration (IC50) was found to be 62.3 nM.
Turning to `CC(=O)N1CCC(c2nc(-c3cncc([C@@](O)(c4ccc(OC(F)(F)F)cc4)C4(C)CN(C)C4)c3)no2)CC1` [Example 554], the IC50 came to 117 nM.
As to `CC(=O)N1CCC(c2nc(-c3cncc([C@@](O)(c4ccc(OC(C)C)cc4)C4(C)CN(C)C4)c3)no2)CC1` [Example 555], the IC50 came to 986 nM.
For `CC(C)c1ccc([C@](O)(c2cncc(-c3noc(C(C)(C)O)n3)c2)C2(C)CN(C)C2)cc1Cl` [Example 556] the value was 615 nM.
With `CN1CC(C)([C@](O)(c2ccc(C3CCC3)cc2)c2cncc(-c3noc(C(C)(C)O)n3)c2)C1` [Example 557] the figure was 46.3 nM; with `CC(=O)N1CCC(c2nc(-c3cncc([C@@](O)(c4ccc(C5CCC5)cc4)C4(C)CN(C)C4)c3)no2)CC1` [Example 558], 84.5 nM; with `CC(=O)N1CCC(c2nc(-c3cncc([C@@](O)(c4cc(F)c(C(C)C)c(F)c4)C4(C)CN(C)C4)c3)no2)CC1` [Example 559], 85.6 nM.
For `CC(C)c1c(F)cc([C@](O)(c2cncc(-c3noc(C(C)(C)O)n3)c2)C2(C)CN(C)C2)cc1F` [Example 560] the value was 74.6 nM; for `CC(=O)N1CCC(c2nc(-c3cncc([C@@](O)(c4ccc(OC5CCC5)cc4)C4(C)CN(C)C4)c3)no2)CC1` [Example 561], 766 nM; for `CCC(CC)c1ccc(C(O)(c2cncc(-c3noc(C(C)(C)O)n3)c2)C2(C)CN(C)C2)cc1` (stereo not drawn) [Example 562], 44.7 nM.
Regarding `CCC(CC)c1ccc(C(O)(c2cncc(-c3noc(C4CCN(C(C)=O)CC4)n3)c2)C2(C)CN(C)C2)cc1` (stereo not drawn) [Example 563], the IC50 came out at 45.2 nM.
In the case of `CN1CC(C)(C(O)(c2ccc(CC(C)(C)C)cc2)c2cncc(-c3noc(C(C)(C)O)n3)c2)C1` (stereo not drawn) [Example 564], the IC50 came to 91.9 nM.
With `CC(=O)N1CCC(c2nc(-c3cncc(C(O)(c4ccc(CC(C)(C)C)cc4)C4(C)CN(C)C4)c3)no2)CC1` (stereo not drawn) [Example 565] the figure was 116 nM.
As to `CC(=O)N1CCC(c2nc(-c3cncc(C(O)(c4ccc(C5(C)CC5)cc4)C4(C)CN(C)C4)c3)no2)CC1` (stereo not drawn) [Example 566], the IC50 was determined as 209 nM.
For the compound `CCCc1ccc([C@](O)(c2cncc(-c3noc(C(C)(C)O)n3)c2)C2(C)CN(C)C2)cc1` [Example 567], the concentration for half-maximal inhibition (IC50) is 59.1 nM.
For `CN1CC(C)([C@](O)(c2ccc(C3CC3)cc2)c2cncc(-c3noc(C(C)(C)O)n3)c2)C1` [Example 568] the value was 97.6 nM.
For `CCc1ccc([C@](O)(c2cncc(-c3noc(C(C)(C)O)n3)c2)C2(C)CN(C)C2)cc1` [Example 569] the value was 118 nM; for `CCCCc1ccc([C@](O)(c2cncc(-c3noc(C(C)(C)O)n3)c2)C2(C)CN(C)C2)cc1` [Example 570], 65.8 nM; for `CN1CC(C)([C@](O)(c2ccc(C(F)(F)F)cc2)c2cncc(-c3noc(C(C)(C)O)n3)c2)C1` [Example 571], 1190 nM.
For the compound `CN1CC(C)([C@](O)(c2ccc(CC(F)(F)F)cc2)c2cncc(-c3noc(C(C)(C)O)n3)c2)C1` [Example 572], the IC50 was determined as 149 nM.
